Measurements from patent publication US8034579B2, “Proteins with enhanced functionality and methods of making novel proteins using circular permutation” (Emory University, priority 2005, dated 2011).

Assays:
Format in all cases: biochemical
[1] = target: T1, Candida antarctica lipase B (CALB) circularly permuted variant cp268, P268/T267 (Moesziomyces antarcticus, UniProt P41365); test: Initial rate of hydrolysis of DiFMU octanoate, cp268
T1 construct: Pichia pastoris, purified
From the text: (§1) Kinetic analysis of protein variants: To examine the impact of circular permutation on catalysis eleven functional CALB variants with termini in or near the active site were selected for detailed kinetic characterization. The locations of the termini in these variants are shown on the structure of CALB in FIG. 6; the numbers correspond to the amino acid residue of the new terminus. Following overexpression in P. pastoris, the selected circularly permuted proteins were purified to homogeneity. The catalytic performance of these variants was determined in activity assays with two standard lipase substrates, measuring the initial rates of hydrolysis of the chromogenic substrate p-nitrophenol butyrate (pNB) and the fluorogenic substrate 6,8-difluoro-4-methylumbelliferyl (DiFMU) octanoate.
(§2) The overexpression and purification of wild type CALB was performed as described in Rotticci-Mulder, J. C. et al., Protein Expr Purif 2001, 21, (3), 386-92, which is hereby incorporated by reference. The same protocol was adopted for the isolation of circular permutation variants of CALB. Briefly, pPIC9-ca/B was linearized by SacI digestion and electroporated into P. pastoris cells (GS115). Aliquots were plated on MD His^− plates and incubated at 30° C. Colonies appeared on plates after 2 days of incubation. A single colony was picked to inoculate 25 ml BMGY medium and the culture was incubated at 30° C. until it reached an OD600 of 2-6. The cells were harvested and resuspended in BMMY medium to an OD600 of 1. Protein expression was induced by addition of methanol to a final concentration of 0.5% (v/v) every 24 hours. After 4 days of incubation, the culture medium containing the lipase was separated from the cells by centrifugation (1500 g, 4° C., 10 min).
(§3) Lipase activity was determined by measuring the initial hydrolysis rate of p-NB and DiFMU octanoate at room temperature on a Synergy-HT microtiterplate reader (Bio-Tek Instruments, Winooski, Vt.). Stock solutions of p-NB (200 mM) and DiFMU octanoate (3 mM) were prepared in DMSO. p-NB hydrolysis over a substrate range of 0-1.6 mM was measured in 50 mM K-phosphate buffer (pH 7.5) at 400 nm ( ? for p-NB=13260 M^1 cm^−1) as described in Bender, M. L. et al., J Am Chem Soc 1968, 90, (1), 201-7, which is hereby incorporated by reference. The rate of DiFMU octanoate hydrolysis was determined by measuring the DiFMU formation over a substrate range of 0-12 μM in 50 mM K-phosphate buffer (pH 7.0) at an excitation/emission wavelength 360/460 nm. Kinetic constants were calculated by fitting the initial rates to the Michaelis-Menten equation using the Origin® software (version 7; OriginLab Corporation).
(§4) The present study included ten CALB variants. […]

[2] = target: T2, Candida antarctica lipase B (CALB) circularly permuted variant cp148a, A148/L147 (Moesziomyces antarcticus, UniProt P41365); test: Initial rate of hydrolysis of DiFMU octanoate, cp148a
T2 construct: Pichia pastoris, purified
From the text: as §1, §2
as §3, with “Corporation). […]” for “Corporation).”

[3] = target: T3, Candida antarctica lipase B (CALB) circularly permuted variant cp144a, L144/A141 (Moesziomyces antarcticus, UniProt P41365); test: Initial rate of hydrolysis of DiFMU octanoate, cp144a
T3 construct: Pichia pastoris, purified
From the text: as §1, §2
as §3, with “Corporation). […]” for “Corporation).”

[4] = target: T4, Candida antarctica lipase B (CALB) circularly permuted variant cp44, G44/T43 (Moesziomyces antarcticus, UniProt P41365); test: Initial rate of hydrolysis of DiFMU octanoate, cp44
T4 construct: Pichia pastoris, purified
From the text: as §1, §2, §3

[5] = target: T5, Candida antarctica lipase B (CALB) circularly permuted variant cp150, S150/V149 (Moesziomyces antarcticus, UniProt P41365); test: Initial rate of hydrolysis of DiFMU octanoate, cp150 (S150/V149)
T5 construct: Pichia pastoris, purified
From the text: as §1, §2
as §3, with “Corporation). […]” for “Corporation).”

[6] = target: T6, Candida antarctica lipase B (CALB) circularly permuted variant cp144, His-L144/A141 (Moesziomyces antarcticus, UniProt P41365); test: Initial rate of hydrolysis of DiFMU octanoate, cp144 (His)
T6 construct: secreted from Pichia pastoris GS115, purified
From the text: as §1, §2, §3

[7] = target: T7, Candida antarctica lipase B (CALB), wild type, SEQ ID NO: 2, L1/P317 (Moesziomyces antarcticus, UniProt P41365); test: Initial rate of hydrolysis of DiFMU octanoate, wild type; settings: kcat/KM (variant)/kcat/KM (wild type)
T7 sequence (P41365 26-342): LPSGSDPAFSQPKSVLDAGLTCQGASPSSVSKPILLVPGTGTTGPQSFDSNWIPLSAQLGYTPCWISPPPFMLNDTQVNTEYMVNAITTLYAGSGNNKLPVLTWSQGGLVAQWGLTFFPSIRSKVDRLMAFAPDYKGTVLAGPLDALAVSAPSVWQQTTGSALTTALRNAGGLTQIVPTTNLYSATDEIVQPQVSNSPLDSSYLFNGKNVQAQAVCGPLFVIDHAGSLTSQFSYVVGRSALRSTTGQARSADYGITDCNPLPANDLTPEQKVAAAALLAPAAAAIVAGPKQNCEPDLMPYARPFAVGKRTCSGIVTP
From the text: as §1, with “octanoate. […]” for “octanoate.”
(§5) Lipase activity was determined by measuring the initial hydrolysis rate of p-NB and DiFMU octanoate at room temperature on a Synergy-HT microtiterplate reader (Bio-Tek Instruments, Winooski, Vt.). Stock solutions of p-NB (200 mM) and DiFMU octanoate (3 mM) were prepared in DMSO. p-NB hydrolysis over a substrate range of 0-1.6 mM was measured in 50 mM K-phosphate buffer (pH 7.5) at 400 nm ( ? for p-NB=13260 M^1 cm^−1) as described in Bender, M. L. et al., J Am Chem Soc 1968, 90, (1), 201-7, which is hereby incorporated by reference. […]

[8] = target: T8, Candida antarctica lipase B (CALB) circularly permuted variant cp148, His-A148/L147 (Moesziomyces antarcticus, UniProt P41365); test: Initial rate of hydrolysis of DiFMU octanoate, cp148 (His)
T8 construct: Pichia pastoris, purified
From the text: as §1, §2, §3

[9] = target: T9, Candida antarctica lipase B (CALB) circularly permuted variant cp150, His-S150A/149 (Moesziomyces antarcticus, UniProt P41365); test: Initial rate of hydrolysis of DiFMU octanoate, cp150 (His)
T9 construct: Pichia pastoris, purified
From the text: as §1, §2, §3

[10] = target: T2, Candida antarctica lipase B (CALB) circularly permuted variant cp148a, A148/L147; test: Initial rate of hydrolysis of pNB, cp148a
From the text: as §1, §2
as §3, with “Corporation). […]” for “Corporation).”

[11] = target: T1, Candida antarctica lipase B (CALB) circularly permuted variant cp268, P268/T267; test: Initial rate of hydrolysis of pNB, cp268
From the text: as §1, §2, §3, §4

[12] = target: T4, Candida antarctica lipase B (CALB) circularly permuted variant cp44, G44/T43; test: Initial rate of hydrolysis of pNB, cp44
From the text: as §1, §2, §3

[13] = target: T5, Candida antarctica lipase B (CALB) circularly permuted variant cp150, S150/V149; test: Initial rate of hydrolysis of pNB, cp150 (S150/V149)
From the text: as §1, §2
as §3, with “Corporation). […]” for “Corporation).”

[14] = target: T6, Candida antarctica lipase B (CALB) circularly permuted variant cp144, His-L144/A141; test: Initial rate of hydrolysis of pNB, cp144 (His)
From the text: as §1, §2, §3

[15] = target: T10, Candida antarctica lipase B (CALB) circularly permuted variant cp150, His-S150/V149 (Moesziomyces antarcticus, UniProt P41365); test: Initial rate of hydrolysis of pNB, cp150 (His)
T10 construct: Pichia pastoris, purified
From the text: as §1, §2, §3

[16] = target: T3, Candida antarctica lipase B (CALB) circularly permuted variant cp144a, L144/A141; test: Initial rate of hydrolysis of pNB, cp144a
From the text: as §1, §2
as §3, with “Corporation). […]” for “Corporation).”

[17] = target: T8, Candida antarctica lipase B (CALB) circularly permuted variant cp148, His-A148/L147; test: Initial rate of hydrolysis of pNB, cp148 (His)
From the text: as §1, §2, §3

[18] = target: T7, Candida antarctica lipase B (CALB), wild type, SEQ ID NO: 2, L1/P317; test: Initial rate of hydrolysis of p-nitrophenol butyrate (pNB), wild type; settings: kcat/KM (variant)/kcat/KM (wild type)
From the text: as §1, with “octanoate. […]” for “octanoate.”
as §5

[19] = 50 mM K-phosphate pH 7.0, room temperature
[20] = kcat/KM (variant)/kcat/KM (wild type)
[21] = 50 mM K-phosphate pH 7.5, room temperature

T9 sequence (P41365 26-342, stated change not applied): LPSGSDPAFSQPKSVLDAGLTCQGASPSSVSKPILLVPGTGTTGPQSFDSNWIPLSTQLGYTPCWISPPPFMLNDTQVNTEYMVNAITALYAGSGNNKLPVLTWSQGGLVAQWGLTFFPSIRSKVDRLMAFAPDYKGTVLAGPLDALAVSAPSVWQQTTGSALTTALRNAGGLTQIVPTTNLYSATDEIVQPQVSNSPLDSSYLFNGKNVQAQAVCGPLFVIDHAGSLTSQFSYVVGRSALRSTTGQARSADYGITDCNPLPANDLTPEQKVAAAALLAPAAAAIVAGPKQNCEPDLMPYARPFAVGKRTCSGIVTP

CCCCCCCC(=O)Oc1c(F)cc2c(C)cc(=O)oc2c1F [DiFMU octanoate, 6,8-difluoro-4-methylumbelliferyl octanoate]
Km [1, 19]: 2.3 ± 0.3 µM | relative specificity [1, 20]: 15.6 | kcat ([1]; pH 7.0, room temperature): 0.48 ± 0.0183 s⁻¹ | kcat/KM ([1]; pH 7.0, room temperature): 208000 M⁻¹ s⁻¹ | Km [2, 19]: 6.1 ± 0.7 µM | relative specificity [2, 20]: 0.7 | kcat ([2]; pH 7.0, room temperature): 0.0583 ± 0.0033 s⁻¹ | kcat/KM ([2]; pH 7.0, room temperature): 9500 M⁻¹ s⁻¹ | Km [3, 19]: 3 ± 0.3 µM | relative specificity [3, 20]: 0.6 | kcat ([3]; pH 7.0, room temperature): 0.025 ± 0.0017 s⁻¹ | kcat/KM ([3]; pH 7.0, room temperature): 8300 M⁻¹ s⁻¹ | Km [4, 19]: 5.6 ± 0.8 µM | relative specificity [4, 20]: 0.13 | kcat ([4]; pH 7.0, room temperature): 0.0083 ± 0.00083 s⁻¹ | kcat/KM ([4]; pH 7.0, room temperature): 1700 M⁻¹ s⁻¹ | Km [5, 19]: 5.5 ± 0.9 µM | relative specificity [5, 20]: 0.5 | kcat ([5]; pH 7.0, room temperature): 0.0367 ± 0.0033 s⁻¹ | kcat/KM ([5]; pH 7.0, room temperature): 6700 M⁻¹ s⁻¹ | Km [6, 19]: 2 ± 0.5 µM | relative specificity [6, 20]: 0.6 | kcat ([6]; pH 7.0, room temperature): 0.017 ± 0.0017 s⁻¹ | kcat/KM ([6]; pH 7.0, room temperature): 8300 M⁻¹ s⁻¹ | relative specificity [7]: 1.0 | Km [8, 19]: 3.5 ± 0.5 µM | relative specificity [8, 20]: 0.4 | kcat ([8]; pH 7.0, room temperature): 0.025 ± 0.0033 s⁻¹ | kcat/KM ([8]; pH 7.0, room temperature): 5830 M⁻¹ s⁻¹ | Km [9, 19]: 2.7 ± 0.8 µM | relative specificity [9, 20]: 1.0 | kcat ([9]; pH 7.0, room temperature): 0.035 ± 0.0033 s⁻¹ | kcat/KM ([9]; pH 7.0, room temperature): 13000 M⁻¹ s⁻¹

CCCC(=O)Oc1ccc([N+](=O)[O-])cc1 [pNB, p-Nitrophenyl butyrate]
Km [10, 21]: 550 ± 70 µM | relative specificity [10, 20]: 1.2 | kcat ([10]; pH 7.5, room temperature): 8.02 ± 0.483 s⁻¹ | kcat/KM ([10]; pH 7.5, room temperature): 14500 M⁻¹ s⁻¹ | Km [11, 21]: 580 ± 90 µM | relative specificity [11, 20]: 7.1 | kcat ([11]; pH 7.5, room temperature): 50.85 ± 3.82 s⁻¹ | kcat/KM ([11]; pH 7.5, room temperature): 87700 M⁻¹ s⁻¹ | Km [12, 21]: 690 ± 90 µM | relative specificity [12, 20]: 0.01 | kcat ([12]; pH 7.5, room temperature): 0.1 ± 0.0083 s⁻¹ | kcat/KM ([12]; pH 7.5, room temperature): 170 M⁻¹ s⁻¹ | Km [13, 21]: 425 ± 50 µM | relative specificity [13, 20]: 1.1 | kcat ([13]; pH 7.5, room temperature): 5.78 ± 0.267 s⁻¹ | kcat/KM ([13]; pH 7.5, room temperature): 13700 M⁻¹ s⁻¹ | Km [14, 21]: 550 ± 50 µM | relative specificity [14, 20]: 0.4 | kcat ([14]; pH 7.5, room temperature): 2.97 ± 0.12 s⁻¹ | kcat/KM ([14]; pH 7.5, room temperature): 5330 M⁻¹ s⁻¹ | Km [15, 21]: 510 ± 90 µM | relative specificity [15, 20]: 1.4 | kcat ([15]; pH 7.5, room temperature): 8.67 ± 0.75 s⁻¹ | kcat/KM ([15]; pH 7.5, room temperature): 17000 M⁻¹ s⁻¹ | Km [16, 21]: 820 ± 100 µM | relative specificity [16, 20]: 0.7 | kcat ([16]; pH 7.5, room temperature): 7.25 ± 0.467 s⁻¹ | kcat/KM ([16]; pH 7.5, room temperature): 8830 M⁻¹ s⁻¹ | Km [17, 21]: 500 ± 30 µM | relative specificity [17, 20]: 0.5 | kcat ([17]; pH 7.5, room temperature): 2.85 ± 0.067 s⁻¹ | kcat/KM ([17]; pH 7.5, room temperature): 5670 M⁻¹ s⁻¹ | relative specificity [18]: 1.0
